Test results as given in patent USRE47302E1 (ONYX THERAPEUTICS INC., priority 2013, dated 2019).
≈ marks a conversion by molar mass, not a printed value. Like-named read-outs stand apart in the source and are kept apart here.

Tests used:
[1] = target: T1, immunoproteasome subunit LMP7 (Homo sapiens, UniProt P28062); assay: Proteasome active-site ELISA (ProCISE), LMP7, MOLT-4 lysate; type: biochemical
T1 construct: Lysate from the human acute lymphoblastic leukemia cell line, MOLT-4; endogenous in cells; host or cells: MOLT-4
Summary of the method: (§1)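 MOLT-4 cell lysate treated 1 h at 25 °C with compound; probe-bound subunits denatured, pulled down on streptavidin beads and detected with subunit-specific antibodies plus HRP chemiluminescence.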

[2] = target: human 20S immunoproteasome (i20S) (Homo sapiens, UniProt P28062); assay: 20S proteasome assay, chymotrypsin-like activity (succinyl-Leu-Leu-Val-Tyr-AMC), i20S; type: biochemical
Text: (§2) Assay buffer consisted of TE buffer [20 mmol/L Tris (pH 8.0), 0.5 mmol/L EDTA] with (20S) or without (cell lysate) 0.03% SDS. Reactions were initiated by enzyme or lysate addition and monitored for AMC product formation at 27jC with a plate-based spectofluorometer (Tecan).

[3] = target: T2, proteasome subunit β5 (beta5) (Homo sapiens, UniProt P28074); assay: Proteasome active-site ELISA (ProCISE), beta5, MOLT-4 lysate; type: biochemical; conditions: MOLT4 lysate, human, 1 h continuous treatment, 25° C.
T2 construct: Lysate from the human acute lymphoblastic leukemia cell line, MOLT-4; endogenous in cells; host or cells: MOLT-4
Summary of the method: as §1

Solubility pH 7 = conditions: pH 7, aqueous buffer
[4] = target: human constitutive 20S proteasome (c20S) (Homo sapiens, UniProt P28074); assay: 20S proteasome assay, chymotrypsin-like activity (succinyl-Leu-Leu-Val-Tyr-AMC), c20S; type: biochemical; conditions: LLVY substrate, 1 h continuous
Text: as §2

[5] = read-out: ProCISE LMP7 MOLT4 lysate Hu 1 h CONT: IC50, 1 h continuous treatment, 25° C.
[6] = read-out: LLVY i20S Hu 1 h CONT: IC50, LLVY substrate, 1 h continuous
[7] = read-out: ProCISE beta5 MOLT4 lysate Hu 1 h CONT: IC50

| Compound | IC50 [1, 5] [nM] | IC50 [2, 6] [nM] | IC50 [3, 7] [nM] | solubility (Solubility pH 7) [µg/mL] | IC50 ([2]; LLVY substrate, 1 h continuous) [nM] | IC50 [4] [nM] | IC50 ([1]; MOLT4 lysate, 1 h continuous treatment, 25° C.) [nM] | IC50 [3] [nM] |
| --- | --- | --- | --- | --- | --- | --- | --- | --- |
| COc1ccc(C[C@H](NC(=O)[C@H](C)NC(=O)CN2CCC(C(F)(F)F)CC2)C(=O)N[C@@H](CC2CCCC2)C(=O)[C@@]2(C)CO2)cc1 [Compound C-1047, (S)-N-((S)-3-cyclopentyl-1-((R)-2-methyloxiran-2-yl)-1-oxopropan-2-yl)-3-(4-methoxyphenyl)-2-((S)-2-(2-(4-(trifluoromethyl)piperidin-1-yl)acetamido)propanamido)propanamide] |  |  |  | 24.1 (≈ 37.7 µM) | 438 | 707 |  |  |
| COc1ccc(C[C@H](NC(=O)[C@H](C)NC(=O)CN2CCOCC2)C(=O)N[C@@H](CC2CCCC2)C(=O)[C@@]2(C)CO2)c(F)c1 [Compound C-1008, (S)-N-((S)-3-cyclopentyl-1-((R)-2-methyloxiran-2-yl)-1-oxopropan-2-yl)-3-(2-fluoro-4-methoxyphenyl)-2-((S)-2-(2-morpholinoacetamido)propanamido)propanamide] |  |  |  | 1430 (≈ 2420 µM) | 2500 | 3380 |  |  |
| C[C@H](NC(=O)CN1CCOCC1)C(=O)N[C@@H](Cc1c[nH]c2ccccc12)C(=O)N[C@@H](CC1CCCC1)C(=O)[C@@]1(C)CO1 [Compound C-1014, (S)-N-((S)-3-cyclopentyl-1-((R)-2-methyloxiran-2-yl)-1-oxopropan-2-yl)-3-(1H-indol-3-yl)-2-((S)-2-(2-morpholinoacetamido)propanamido)propanamide] |  |  |  | 1020 (≈ 1750 µM) | 289 | 806 |  |  |
| COc1ccc(C[C@H](NC(=O)[C@@H](C)NC(=O)[C@H]2CCOC2)C(=O)N[C@@H](CC2CCCC2)C(=O)[C@@]2(C)CO2)cc1 [Compound C-1037, (S)-N-((R)-1-(((S)-1-(((S)-3-cyclopentyl-1-((R)-2-methyloxiran-2-yl)-1-oxopropan-2-yl)amino)-3-(4-methoxyphenyl)-1-oxopropan-2-yl)amino)-1-oxopropan-2-yl)tetrahydrofuran-3-carboxamide] |  |  |  | 1330 (≈ 2440 µM) | 356 | 5860 |  |  |
| COc1ccc(C[C@H](NC(=O)[C@@H](C)NC(=O)[C@@H]2CCC(=O)NC2)C(=O)N[C@@H](CC2CCCC2)C(=O)[C@@]2(C)CO2)cc1 [Compound C-1058, (R)-N-((R)-1-(((S)-1-(((S)-3-cyclopentyl-1-((R)-2-methyloxiran-2-yl)-1-oxopropan-2-yl)amino)-3-(4-methoxyphenyl)-1-oxopropan-2-yl)amino)-1-oxopropan-2-yl)-6-oxopiperidine-3-carboxamide] |  |  |  | 3010 (≈ 5270 µM) | 1610 | 54800 |  |  |
| COc1ccc(C[C@H](NC(=O)[C@H](C)NC(=O)CN2CCC(Cl)CC2)C(=O)N[C@@H](CC2CCCC2)C(=O)[C@@]2(C)CO2)cc1 [Compound C-1045, (S)-2-((S)-2-(2-(4-chloropiperidin-1-yl)acetamido)propanamido)-N-((S)-3-cyclopentyl-1-((R)-2-methyloxiran-2-yl)-1-oxopropan-2-yl)-3-(4-methoxyphenyl)propanamide] |  |  |  | 50.2 (≈ 83 µM) | 308 | 470 |  |  |
| C[C@H](NC(=O)CN1CCOCC1)C(=O)N[C@@H](Cc1cccc(S(C)(=O)=O)c1)C(=O)N[C@@H](CC1CCCC1)C(=O)[C@@]1(C)CO1 [Compound C-1024, (S)-N-((S)-3-cyclopentyl-1-((R)-2-methyloxiran-2-yl)-1-oxopropan-2-yl)-3-(3-(methylsulfonyl)phenyl)-2-((S)-2-(2-morpholinoacetamido)propanamido)propanamide] |  |  |  | 4760 (≈ 7670 µM) | 707 | 715 |  |  |
| C[C@H](NC(=O)CN1CCOCC1)C(=O)N[C@@H](Cc1ccco1)C(=O)N[C@@H](CC1CCCC1)C(=O)[C@@]1(C)CO1 [Compound C-1013, (S)-N-((S)-3-cyclopentyl-1-((R)-2-methyloxiran-2-yl)-1-oxopropan-2-yl)-3-(furan-2-yl)-2-((S)-2-(2-morpholinoacetamido)propanamido)propanamide] |  |  |  | 911 (≈ 1710 µM) | 445 | 548 |  |  |
| COc1ccc(C[C@H](NC(=O)[C@H](C)NC(=O)CN2CCC(F)(F)C2)C(=O)N[C@@H](CC2CCCC2)C(=O)[C@@]2(C)CO2)cc1 [Compound C-1048, (S)-N-((S)-3-cyclopentyl-1-((R)-2-methyloxiran-2-yl)-1-oxopropan-2-yl)-2-((S)-2-(2-(3,3-difluoropyrrolidin-1-yl)acetamido)propanamido)-3-(4-methoxyphenyl)propanamide] |  |  |  | 153 (≈ 258 µM) | 549 | 2630 |  |  |
| COc1ccc(C[C@H](NC(=O)[C@@H](C)NC(=O)[C@@H]2CCOC2)C(=O)N[C@@H](CC2CCCC2)C(=O)[C@@]2(C)CO2)cc1 [Compound C-1036, (R)-N-((R)-1-(((S)-1-(((S)-3-cyclopentyl-1-((R)-2-methyloxiran-2-yl)-1-oxopropan-2-yl)amino)-3-(4-methoxyphenyl)-1-oxopropan-2-yl)amino)-1-oxopropan-2-yl)tetrahydrofuran-3-carboxamide] |  |  |  | 277 (≈ 510 µM) | 480 | 16500 |  |  |
| C[C@H](NC(=O)CN1CCOCC1)C(=O)N[C@@H](Cc1ccccn1)C(=O)N[C@@H](Cc1ccccc1)C(=O)[C@@]1(C)CO1 [Compound C-1155] |  | 252 |  | 2090 (≈ 3790 µM) |  |  |  |  |
| COc1ccc(C[C@H](NC(=O)[C@@H](C)NC(=O)[C@H]2CC[C@@H](O)CC2)C(=O)N[C@@H](CC2=CCCCC2)C(=O)[C@@]2(C)CO2)cc1 [Compound C-1097, (1s,4S)-N-((R)-1-(((S)-1-(((S)-3-(cyclohex-1-en-1-yl)-1-((R)-2-methyloxiran-2-yl)-1-oxopropan-2-yl)amino)-3-(4-methoxyphenyl)-1-oxopropan-2-yl)amino)-1-oxopropan-2-yl)-4-hydroxycyclohexanecarboxamide] |  |  |  | 256 (≈ 439 µM) |  |  | 21.6 | 322 |

Other lines, results leading:

| IC50 [1, 5] [nM] | IC50 [2, 6] [nM] | IC50 [3, 7] [nM] | solubility (Solubility pH 7) [µg/mL] | IC50 ([2]; LLVY substrate, 1 h continuous) [nM] | IC50 [4] [nM] | IC50 ([1]; MOLT4 lysate, 1 h continuous treatment, 25° C.) [nM] | IC50 [3] [nM] | Compound |
| --- | --- | --- | --- | --- | --- | --- | --- | --- |
| 107 | 129 | 441 | 2480 (≈ 4490 µM) |  |  |  |  | C[C@H](NC(=O)CN1CCOCC1)C(=O)N[C@@H](Cc1cccnc1)C(=O)N[C@@H](Cc1ccccc1)C(=O)[C@@]1(C)CO1 [Compound C-1175] |
| 28.9 | 33.6 | 114 | 2340 (≈ 3840 µM) |  |  |  |  | COc1ccc(C[C@H](NC(=O)[C@@H](NC(=O)CN2CCOCC2)[C@@H](C)O)C(=O)N[C@@H](Cc2ccccc2)C(=O)[C@@]2(C)CO2)cc1 [Compound C-1173] |
|  | 649 |  | 1980 (≈ 3560 µM) |  |  |  |  | C[C@H](NC(=O)CN1CCOCC1)C(=O)N[C@@H](CC1=CCCCC1)C(=O)N[C@@H](Cc1ccccc1)C(=O)[C@@]1(C)CO1 [Compound C-1227] |
| 13.5 | 13.5 | 120 | 938 (≈ 1580 µM) |  |  |  |  | COc1ccc(C[C@H](NC(=O)[C@H](C)NC(=O)CN2CCOCC2)C(=O)N[C@@H](Cc2ccc(C)cc2)C(=O)[C@@]2(C)CO2)cc1 [Compound C-1181] |
| 17.1 | 21.5 | 101 | 4540 (≈ 7290 µM) |  |  |  |  | COc1ccc(C[C@H](NC(=O)[C@@H](NC(=O)CN2CCOCC2)C2COC2)C(=O)N[C@@H](Cc2ccccc2)C(=O)[C@@]2(C)CO2)cc1 [Compound C-1183] |
| 49.5 | 18.6 | 205 | 3450 (≈ 6340 µM) |  |  |  |  | C=CC(=O)NC[C@H](NC(=O)[C@H](C)NC(=O)CN1CCOCC1)C(=O)N[C@@H](Cc1ccccc1)C(=O)[C@@]1(C)CO1 [Compound C-1225] |
| 510 | 241 | 3840 | 1190 (≈ 2050 µM) |  |  |  |  | COc1ccc(C[C@H](NC(=O)[C@H](C)NC(=O)NN2CCOCC2)C(=O)N[C@@H](Cc2ccccc2)C(=O)[C@@]2(C)CO2)cc1 [Compound C-1178] |
| 21 | 25.9 | 312 | 1380 (≈ 2310 µM) |  |  |  |  | COc1ccc(C[C@H](NC(=O)[C@H](C)NC(=O)CN2CCOCC2)C(=O)N[C@@H](Cc2cccc(F)c2)C(=O)[C@@]2(C)CO2)cc1 [Compound C-1180] |
|  | 390 |  |  |  |  |  |  | C[C@H](NC(=O)CN1CCOCC1)C(=O)N[C@@H](CC1CCCCC1)C(=O)N[C@@H](Cc1ccccc1)C(=O)[C@@]1(C)CO1 [Compound C-1235] |
|  | 1500 |  |  |  |  |  |  | COC[C@H](NC(=O)[C@H](C)NC(=O)CN1CCOCC1)C(=O)N[C@@H](Cc1ccccc1)C(=O)[C@@]1(C)CO1 [Compound C-1234] |
| 51 | 63.1 | 252 | 1680 (≈ 3050 µM) |  |  |  |  | C[C@H](NC(=O)CN1CCOCC1)C(=O)N[C@@H](Cc1ccncc1)C(=O)N[C@@H](Cc1ccccc1)C(=O)[C@@]1(C)CO1 [Compound C-1171] |
|  | 11 |  |  |  |  |  |  | COC[C@H](NC(=O)CN1CCOCC1)C(=O)N[C@@H](Cc1ccc(OC)cc1)C(=O)N[C@@H](Cc1ccccc1)C(=O)[C@@]1(C)CO1 [Compound C-1220] |
| 19.5 | 10.5 | 63.9 | 2730 (≈ 4390 µM) |  |  |  |  | COc1ccc(C[C@H](NC(=O)[C@@H](NC(=O)CN2CCOCC2)C2(O)CC2)C(=O)N[C@@H](Cc2ccccc2)C(=O)[C@@]2(C)CO2)cc1 [Compound C-1184] |
